Laboratory results published in patent publication US10047345B2, “Culturing of mesenchymal stem cells with FGF4 and nicotinamide” (Gamida-Cell Ltd., priority 2012, dated 2018).

Tests used:
Assay type in all cases: cell-based, human
[1] = test system: bone marrow-derived mesenchymal stem cells; test: Senescence evaluation assay (beta-galactosidase staining); details: 5 passages, 5 mM NAM, X-Gal staining
Experimental: Cultured MSCs were stained using the Senescence beta-Galactosidase Staining Kit (Cell Signaling). The cells are fixed and stained for detection of beta-Galactosidase activity at pH 6 using X-Gal and incubation overnight in 37° C. in dry incubator.

mesenchymal stem cells = test: Surface expression of VCAM1/CD106 and CD54 by FACS; details: versus MSCs grown without nicotinamide
Experimental: Mesenchymal stem cells were isolated using plastic adherence method, as described above and cultured for several passages with fetal bovine serum, ±NAM. The cells were selected in the presence of NAM. At about 80% confluence, adherent cells were collected following trypsin treatment, counted, characterized and re-seeded at a concentration of 1×10^3 cells/cm^2. Following Trypsin treatment the cells were analyzed for CD 106 expression in FACS using anti-human CD 106 PE antibodies. Following Trypsin treatment the cells were analyzed for CD54 expression in FACS using anti-human CD54 antibodies.

[2] = test system: adipose tissue derived mesenchymal stem cells; test: Expansion and phenotype of adipose tissue derived MSCs with nicotinamide
Experimental: Cell number was measured using Cedex Automated Cell Counter (Innovatis). The cells were diluted 1:2 in Trypan Blue (Sigma) and cell number was measured automatically under microscope.

[3] = test system: bone marrow derived mesenchymal stem cells; test: Seeding, expansion, size and granularity of bone marrow derived MSCs with nicotinamide
Experimental: Bone marrow derived and adipose tissue derived mesenchymal cells were isolated based on their plastic adherence potential in expansion medium containing: High glucose DMEM and 10% Fetal Bovine Serum (FBS, Hyclone, Logan, Utah, USA) supplemented with 0.05 mg/ml Gentamicin (Sigma) and 2 mM L-glutamine (Biological Industries, Israel). Cells were allowed to adhere for 3-4 days and non-adherent cells were washed out with medium changes. The medium was further exchanged with fresh medium every 3-4 days. Once adherent cells reached approximately 80-90% confluency, they were detached with 0.25% trypsin-EDTA (Sigma), washed twice in DMEM and 10% Fetal Bovine Serum, with centrifugation, 400 g, 5 minutes, and replated at a 1:2 to 1:1000 dilution under the same culture conditions. Cell size was measured using Cedex Automated Cell Counter (Innovatis). The cells were diluted 1:2 in Trypan Blue (Sigma) and cell size was measured automatically under microscope. Following trypsin treatment, the cells were analyzed for granularicity by side scatter FACS. Cell number was measured using Cedex Automated Cell Counter (Innovatis). The cells were diluted 1:2 in Trypan Blue (Sigma) and cell number was measured automatically under microscope. […] At each passage and at each medium exchange, the cultures were supplemented with mesenchymal medium, nicotinamide and growth factors.

Compound: NC(=O)c1cccnc1 [nicotinamide, Nicotinamide]
- amount of senescent cells [1]: reduced
- CD54 expression (mesenchymal stem cells): express less CD54
- VCAM1/CD106 expression (mesenchymal stem cells): express more VCAM1/CD106
- differentiation state (surface marker composition) after expansion in nicotinamide ([2]; at least six passages): without induction of differentiation
- adipose derived mesenchymal stem cell expansion in culture ([2]; nicotinamide added from passage 3): substantially improved
- seeding efficacy (selection) of bone marrow derived MSCs [3]: increased the seeding efficacy
- expansion rate of bone marrow derived MSCs at low nicotinamide concentration ([3]; 0.1 mM nicotinamide, figure not shown): insignificant effect
- cell size and granularity of MSCs versus culture without nicotinamide ([3]; identical conditions without nicotinamide as comparison): smaller and less granular
- doubling time of MSCs ([3]; nicotinamide added from initiation of culture and at each passage): decreased
